Data published in patent publication US5712297A, “Piperdine compounds and their preparation and use” (Novo Nordisk A/S, priority 1989, dated 1998).
Counter-ions that a name gives are not always drawn.

Target: muscarinic acetylcholine receptors
Assay: Inhibition of specific binding of 3H-Oxotremorine-M (3H-Oxo)
Parameters: species or system rat (male Wistar
Conditions: rat cortex; 3H-Oxotremorine 1.0 nM; 20 mM Hepes pH 7.4; 30 min at 25° C.
Description: The pharmacological properties of the compounds of the present invention (Formula I) can be illustrated by determining their capability to inhibit the specific binding of ^3 H-Oxotremorine-M (^3 H-Oxo).
^3 H-Oxo labels muscarinic receptors in the CNS (with a preference for agonist domaines of the receptors). Three different sites are labelled by 3H-Oxo. These sites have affinity of 1.0, 20 and 3000 nM, respectively. Using the present experimental conditions only the high and medium affinity sites are determined. The inhibitory effects of compounds on ^3 H-Oxo binding reflects the affinity for muscarinic acetylcholine receptors.
All preparations are performed at 0°-4° C. unless otherwise indicated. Fresh cortex (0.1-1 g) from male Wistar rats (150-250 g) is homogenized for 5-10 s in 10 ml 20 mM Hepes pH: 7.4, with an Ultra-Turrax homogenizer. The homogenizer is rinsed with 10 ml of buffer and the combined suspension centrifuged for 15 min at 40,000×g. The pellet is washed three times with buffer. In each step the pellet is homogenized as before in 2×10 ml of buffer and centrifuged for 10 min at 40,000×g. The final pellet is homogenized in 20 mM Hepes pH: 7.4 (100 ml per g of original tissue) and used for binding assay. Aliquots of 0.5 ml is added 25 μl of test solution and 25 μl of ^3 H-Oxotremorine (1.0 nM, final concentration) mixed and incubated for 30 min at 25° C. Non-specific binding is determined in triplicate using Arecoline (1 μg/ml, final concentration) as the test substance. After incubation samples are added 5 ml of ice-cold buffer and poured directly onto Whatman GF/C glass fiber filters under suction and immediately washed 2 times with 5 ml of ice-cold buffer. The amount of radioactivity on the filters are determined by conventional liquid scintillation counting. Specific binding is total binding minus non-specific binding. Test substances are dissolved in 10 ml water (if necessary heated on a steam-bath for less than 5 minutes) at a concentration of 2.2 mg/ml. 25-75% inhibition of specific binding must be obtained before calculation of IC50.
The test value will be given as IC50 (the concentration (ng/ml) of the test substance which inhibits the specific binding of ^3 H-Oxo by 50%). [formula] where Co is specific binding in control assays and Cx is the specific binding in the test assay. (The calculations assume normal mass-action kinetics).

| Structure (SMILES) | Inhibition in vitro OXO BINDING (IC50: concentration which inhibits the specific binding of 3H-Oxo by 50%) [ng/mL] |
| --- | --- |
| CN1CCC=C(c2nsnc2Cl)C1.O=C(O)C(=O)O [Compound 16, 3-(4-chloro-1,2,5-thiadiazol-3-yl)-1,2,5,6-tetrahydro-1-methylpyridine oxalate] | 3.3 |
| CCCCCOc1nsnc1C1=CCCN(C)C1.O=C(O)C(=O)O [Compound 6, 1,2,5,6-tetrahydro-1-methyl-3-(4-pentyloxy-1,2,5-thiadiazol-3-yl)pyridine oxalate] | 1.9 |
| COc1nsnc1C1=CCCN(C)C1.O=C(O)C(=O)O [Compound 1, 1,2,5,6-tetrahydro-3-(4-methoxy-1,2,5-thiadiazol-3-yl)-1-methylpyridine oxalate] | 1.5 |
| CCCCCCCc1nsnc1C1=CCCN(C)C1 [Compound 58, 3-(4-heptyl-1,2,5-thiadiazol-3-yl)-1,2,5,6-tetrahydro-1-methylpyridinium oxalate] | 50 |
| CCOc1nsnc1C1=CCCN(C)C1.O=C(O)C(=O)O [Compound 2, 3-(4-ethoxy-1,2,5-thiadiazol-3-yl)-1,2,5,6-tetrahydro-1-methylpyridine oxalate] | 0.4 |
| CC(C)CCOc1nsnc1C1=CCCN(C)C1.O=C(O)C(=O)O [Compound 8, 1,2,5,6-tetrahydro-3-(4-isopentyloxy-1,2,5-thiadiazol-3-yl)-1-methylpyridine oxalate] | 1.9 |
| CN1CCC=C(c2nsnc2N2CCOCC2)C1 [Compound 45, 3-(4-morpholino-1,2,5-thiadiazol-3-yl)-1,2,5,6-tetrahydro-1-methylpyridineoxalate] | 115 |
| CCCCCCSc1nsnc1C1=CCCN(C)C1.O=C(O)C(=O)O [Compound 67, 3-(4-hexylthio-1,2,5-thiadiazol-3-yl)-1,2,5,6-tetrahydro-1-methylpyridine oxalate] | 1.6 |
| CN1CCC=C(c2nsnc2OCc2ccccc2)C1.O=C(O)C(=O)O [Compound 10, 3-(4-benzyloxy-1,2,5-thiadiazol-3-yl)-1,2,5,6-tetrahydro-1-methylpyridine oxalate] | 2.3 |
| C=CCCCOc1nsnc1C1=CCCN(C)C1.O=C(O)C(=O)O [Compound 23, 3-(4-(4-pentenyloxy)-1,2,5-thiadiazol-3-yl)-1,2,5,6-tetrahydro-1-methylpyridine oxalate] | 0.3 |
| CC#CCCOc1nsnc1C1=CCCN(C)C1.O=C(O)C(=O)O [Compound 22, 3-(4-(3-pentynyloxy)-1,2,5-thiadiazol-3-yl)-1,2,5,6-tetrahydro-1-methylpyridine oxalate] | 0.4 |
| CCCCCCNc1nsnc1C1=CCCN(C)C1 [Compound 46, 3-(4-hexylamino-1,2,5-thiadiazol-3-yl)-1,2,5,6-tetrahydro-1-methylpyridineoxalate] | 18 |
| CC(C)Cc1nsnc1C1=CCCN(C)C1 [Compound 61, 3-(4-isobutyl-1,2,5-thiadiazol-3-yl)-1,2,5,6-tetrahydro-1-methylpyridinium oxalate] | 50 |
| CN1CCC=C(c2nonc2N)C1.O=C(O)C(=O)O [Compound 50, 3-(4-amino-1,2,5-oxadiazol-3-yl)-1,2,5,6-tetrahydro-1-methylpyridine oxalate] | 300 |
| CCC/C=C\COc1nsnc1C1=CCCN(C)C1.O=C(O)C(=O)O [Compound 32, cis-3-(4-(2-hexenyloxy)-1,2,5-thiadiazol-3-yl)-1,2,5,6-tetrahydro-1-methylpyridine oxalate] | 1.4 |
| CC(C)COc1nsnc1C1=CCCN(C)C1.O=C(O)C(=O)O [Compound 7, 1,2,5,6-tetrahydro-3-(4-isobutoxy-1,2,5-thiadiazol-3-yl)-1-methylpyridine oxalate] | 1.7 |

| Structure (SMILES) | Inhibition in vitro OXO BINDING (IC50: concentration which inhibits the specific binding of 3H-Oxo by 50%) [ng/mL] |
| --- | --- |
| CC/C=C/CCOc1nsnc1C1=CCCN(C)C1.O=C(O)C(=O)O [Compound 30, trans-3-(4-(3-hexenyloxy)-1,2,5-thiadiazol-3-yl)-1,2,5,6-tetrahydro-1-methylpyridine oxalate] | 0.4 |
| CC/C=C\COc1nsnc1C1=CCCN(C)C1.O=C(O)C(=O)O [Compound 31, cis-3-(4-(2-pentenyloxy)-1,2,5-thiadiazol-3-yl)-1,2,5,6-tetrahydro-1-methylpyridine oxalate] | 0.7 |
| C=CCCOc1nsnc1C1=CCCN(C)C1.O=C(O)C(=O)O [Compound 11, 3-(4-(3-butenyloxy)-1,2,5-thiadiazol-3-yl)-1,2,5,6-tetrahydro-1-methylpyridine oxalate] | 0.9 |
| CCCCCCCOc1nsnc1C1=CCCN(C)C1.O=C(O)C(=O)O [Compound 21, 3-(4-heptyloxy-1,2,5-thiadiazol-3-yl)-1,2,5,6-tetrahydro-1-methylpyridine oxalate] | 2.4 |
| CCC#CCCOc1nonc1C1=CCCN(C)C1.O=C(O)C(=O)O [Compound 56, 3-(4-(3-hexynyloxy)-1,2,5-oxadiazol-3-yl)-1,2,5,6-tetrahydro-1-methylpyridine oxalate] | 2.1 |
| CCCCOCCOCCOc1nsnc1C1=CCCN(C)C1.O=C(O)C(=O)O [Compound 42, 3-(4-(2-(2-butoxyethoxy)ethoxy)-1,2,5-thiadiazol-3-yl)-1,2,5,6-tetrahydro-1-methylpyridine oxalate] | 7.0 |
| Cl.Clc1nsnc1C1=CCCNC1 [Compound 17, 3-(4-chloro-1,2,5-thiadiazol-3-yl)-1,2,5,6-tetrahydropyridine hydrochloride] | 19.0 |
| CCCCCCOc1nsnc1C1=CCCN(C)C1 [Compound 9, 3-(4-hexyloxy-1,2,5-thiadiazol-3-yl)-1,2,5,6-tetrahydro-1-methylpyridineoxalate] | 3.6 |
| CCCCCCOc1nsnc1C1=CCCNC1.O=C(O)C(=O)O [Compound 37, 1,2,5,6-tetrahydro-3-(4-hexyloxy-1,2,5-thiadiazol-3-yl) pyridine oxalate] | 6.3 |
| CSc1nsnc1C1=CCCN(C)C1 [Compound 49, 3-(4-methylthio-1,2,5-thiadiazol-3-yl)-1,2,5,6-tetrahydro-1-methylpyridineoxalate] | 0.7 |
| COCCOCCOc1nsnc1C1=CCCN(C)C1.O=C(O)C(=O)O [Compound 38, 3-(4-(2-(2-methoxyethoxy)ethoxy)-1,2,5-thiadiazol-3-yl)-1,2,5,6-tetrahydro-1-methylpyridine oxalate] | 7.4 |
| CC=CCCCOc1nsnc1C1=CCCN(C)C1.O=C(O)C(=O)O [Compound 29, 3-(4-(4-hexenyloxy)-1,2,5-thiadiazol-3-yl)-1,2,5,6-tetrahydro-1-methylpyridine oxalate] | 0.6 |
| COCCOc1nsnc1C1=CCCN(C)C1.O=C(O)C(=O)O [Compound 15, 1,2,5,6-tetrahydro-3-(4-methoxyethoxy-1,2,5-thiadiazol-3-yl)-1-methylpyridine oxalate] | 0.6 |
| CC(C)Oc1nsnc1C1=CCCN(C)C1 [Compound 5, 1,2,5,6-tetrahydro-3-(4-isopropoxy-1,2,5-thiadiazol-3-yl)-1-methylpyridineoxalate] | 3.5 |
| CCOCCOCCOc1nsnc1C1=CCCN(C)C1.O=C(O)C(=O)O [Compound 43, 3-(4-(2-(2-ethoxyethoxy)ethoxy)-1,2,5-thiadiazol-3-yl)-1,2,5,6-tetrahydro-1-methylpyridine oxalate] | 4.0 |
